Assay results reported in patent US10537523B2, “Oral suspension comprising telmisartan” (Boehringer Ingelheim Vetmedica GmbH, priority 2009, dated 2020).

Experiment: pH-dependent solubility of telmisartan in aqueous formulation
Format: physicochemical
Details: concentrations of active substance greater than 1 mg/ml
Source text: The aim of the present invention is to provide a pharmaceutical solution, preferably a drinkable pharmaceutical solution containing an angiotensin-II-receptor antagonist. Preferred angiotensin II receptor antagonists are the substances known by the following INN names: candesartan, eprosartan, irbesartan, losartan, olmesartan, tasosartan, telmisartan and valsartan, and the pharmaceutically acceptable salts, hydrates or polymorphs thereof. The concentration of the angiotensin-II-receptor antagonist, preferably telmisartan, needed in the solution in order to achieve therapeutic doses should be between 1 mg/ml and 10 mg/ml. Moreover, because of the strongly pH-dependent solubility profile of telmisartan an aqueous formulation should have a pH that is either less than 2 or more than 10, in order to ensure a physically stable solution.
The very powerfully astringent effect of such acidic solutions makes acidic formulations of this kind totally unsuitable for long-term use particularly in children but also in domestic pets such as dogs and cats.
It has thus been shown that the stability of a drinkable telmisartan solution is dependent on the amount of reducing sugar contained in the sugar alcohol. The stability of a drinkable telmisartan solution deteriorates as the content of reducing sugars increases. […]

pH needed for dissolved active substance in acid range: less than 1.5
Compound: CCCc1nc2c(C)cc(-c3nc4ccccc4n3C)cc2n1Cc1ccc(-c2ccccc2C(=O)O)cc1 [telmisartan, 4′-((2-n-propyl-4-methyl-6-(1-methylbenz-imidazol-2-yl)-benzimidazol-1-yl)methyl)biphenyl-2-carboxylic acid]
